Reference: ChEMBL document CHEMBL1154613, “Antagonists of the calcium receptor. 2. Amino alcohol-based parathyroid hormone secretagogues” (J Med Chem, 2009)

target: Sodium-dependent dopamine transporter (Homo sapiens, UniProt Q01959); experiment: Inhibition of DAT; conditions: not given
Sequence (Q01959 whole entry): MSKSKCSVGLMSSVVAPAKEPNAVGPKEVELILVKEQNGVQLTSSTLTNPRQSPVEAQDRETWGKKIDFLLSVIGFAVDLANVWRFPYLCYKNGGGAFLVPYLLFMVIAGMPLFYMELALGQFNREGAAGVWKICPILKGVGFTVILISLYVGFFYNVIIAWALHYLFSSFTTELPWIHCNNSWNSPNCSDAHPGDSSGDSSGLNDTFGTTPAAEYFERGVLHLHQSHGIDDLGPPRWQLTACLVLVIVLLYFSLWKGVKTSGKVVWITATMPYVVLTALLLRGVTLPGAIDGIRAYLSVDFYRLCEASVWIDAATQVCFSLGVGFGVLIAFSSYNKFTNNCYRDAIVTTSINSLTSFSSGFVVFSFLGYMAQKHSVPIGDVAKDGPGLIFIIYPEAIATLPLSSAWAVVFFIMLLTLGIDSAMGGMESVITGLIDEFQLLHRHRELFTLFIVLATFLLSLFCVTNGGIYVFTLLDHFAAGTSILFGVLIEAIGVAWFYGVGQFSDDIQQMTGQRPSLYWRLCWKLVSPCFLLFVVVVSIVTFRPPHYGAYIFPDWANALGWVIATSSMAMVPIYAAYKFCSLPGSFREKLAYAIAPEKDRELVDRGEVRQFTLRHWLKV

Structure (SMILES) | IC50 [nM]
CCOC(=O)CCc1ccc(OC[C@H](O)CNC(C)(C)Cc2ccc3ccccc3c2)c(C#N)c1.Cl | 59
CC(C)(Cc1ccc2ccccc2c1)NC[C@@H](O)COc1ccccc1C#N | 2
CC(C)(Cc1ccc2ccccc2c1)NC[C@@H](O)COc1ccc(CCC(=O)O)cc1C#N | 2800
CC(C)(Cc1ccc2ccccc2c1)NC[C@@H](O)COc1ccc(CCC(=O)O)cc1 | 3700

target: Beta-2 adrenergic receptor (Homo sapiens, UniProt P07550); experiment: Inhibition of beta2 adrenergic receptor; conditions: not given
Sequence (P07550 whole entry): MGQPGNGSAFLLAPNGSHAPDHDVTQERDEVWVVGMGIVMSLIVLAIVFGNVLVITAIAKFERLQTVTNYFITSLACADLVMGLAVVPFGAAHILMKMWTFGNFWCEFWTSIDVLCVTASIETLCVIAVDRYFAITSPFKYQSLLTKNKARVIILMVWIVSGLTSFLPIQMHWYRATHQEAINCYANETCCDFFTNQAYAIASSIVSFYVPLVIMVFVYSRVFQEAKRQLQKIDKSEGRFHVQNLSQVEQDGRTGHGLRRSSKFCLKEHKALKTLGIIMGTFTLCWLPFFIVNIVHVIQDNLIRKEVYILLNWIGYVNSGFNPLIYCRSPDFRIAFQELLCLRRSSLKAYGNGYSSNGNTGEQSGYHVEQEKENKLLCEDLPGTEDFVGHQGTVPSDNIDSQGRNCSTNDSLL

Structure (SMILES) | IC50 [µM]
CCOC(=O)CCc1ccc(OC[C@H](O)CNC(C)(C)Cc2ccc3ccccc3c2)c(C#N)c1.Cl | 14
CC(C)(Cc1ccc2ccccc2c1)NC[C@@H](O)COc1cccc(Cl)c1C#N | 4.3
COc1ccc(CC(C)(C)NC[C@H](O)COc2cccc3[nH]c(=O)[nH]c23)cc1 | 0.0013
CC(C)(Cc1ccc2ccccc2c1)NC[C@@H](O)COc1ccc(CCC(=O)O)cc1C#N | > 30
CC(C)(Cc1ccc2ccccc2c1)NC[C@@H](O)COc1ccc(CCC(=O)O)cc1 | > 30

test system: not listed separately; experiment: Oral bioavailability in rat; type: ADME, organism-based; conditions: in vivo

Structure (SMILES) | bioavailability [%]
CC(C)(Cc1ccc2ccccc2c1)NC[C@@H](O)COc1cccc(Cl)c1C#N | 11.4
CC(C)(Cc1ccc2ccccc2c1)NC[C@@H](O)COc1ccc(CCC(=O)O)cc1C#N | 0.29
CC(C)(Cc1ccc2ccccc2c1)NC[C@@H](O)COc1ccc(CCC(=O)O)cc1 | 4

test system: not listed separately; experiment: Volume of distribution at steady state in iv and po dosed dog; type: ADME, organism-based, Canis lupus familiaris; conditions: in vivo, read-out: Vdss

Structure (SMILES) | Vd [L/kg]
CC(C)(Cc1ccc2ccccc2c1)NC[C@@H](O)COc1ccc(CCC(=O)O)cc1C#N | 0.78

test system: Canis familiaris; experiment: Tmax in dog assessed as (R)-3-(3-cyano-4-(2-hydroxy-3-(2-methyl-1-(naphthalen-2-yl)propan-2-ylamino)propoxy)phenyl)propanoic acid levels at 23.4 mg/kg, po; type: ADME, organism-based, Canis lupus familiaris; parameters: dose 23.4 mg/kg, route oral; conditions: in vivo

Structure (SMILES) | Tmax [min]
CCOC(=O)CCc1ccc(OC[C@H](O)CNC(C)(C)Cc2ccc3ccccc3c2)c(C#N)c1.Cl | 30

test system: Canis familiaris; experiment: Oral bioavailability in dog assessed as (R)-3-(3-cyano-4-(2-hydroxy-3-(2-methyl-1-(naphthalen-2-yl)propan-2-ylamino)propoxy)phenyl)propanoic acid levels; type: ADME, organism-based, Canis lupus familiaris; conditions: in vivo

Structure (SMILES) | F [%]
CCOC(=O)CCc1ccc(OC[C@H](O)CNC(C)(C)Cc2ccc3ccccc3c2)c(C#N)c1.Cl | 9.1

test system: Canis familiaris; experiment: Cmax in dog assessed as (R)-3-(3-cyano-4-(2-hydroxy-3-(2-methyl-1-(naphthalen-2-yl)propan-2-ylamino)propoxy)phenyl)propanoic acid levels at 23.4 mg/kg, po; type: ADME, organism-based, Canis lupus familiaris; parameters: dose 23.4 mg/kg, route oral; conditions: in vivo

Structure (SMILES) | Cmax [ng/mL]
CCOC(=O)CCc1ccc(OC[C@H](O)CNC(C)(C)Cc2ccc3ccccc3c2)c(C#N)c1.Cl | 597

target: Cytochrome P450 2D6 (Homo sapiens, UniProt P10635); experiment: Inhibition of CYP2D6; type: ADME; conditions: not given
Sequence (P10635 whole entry): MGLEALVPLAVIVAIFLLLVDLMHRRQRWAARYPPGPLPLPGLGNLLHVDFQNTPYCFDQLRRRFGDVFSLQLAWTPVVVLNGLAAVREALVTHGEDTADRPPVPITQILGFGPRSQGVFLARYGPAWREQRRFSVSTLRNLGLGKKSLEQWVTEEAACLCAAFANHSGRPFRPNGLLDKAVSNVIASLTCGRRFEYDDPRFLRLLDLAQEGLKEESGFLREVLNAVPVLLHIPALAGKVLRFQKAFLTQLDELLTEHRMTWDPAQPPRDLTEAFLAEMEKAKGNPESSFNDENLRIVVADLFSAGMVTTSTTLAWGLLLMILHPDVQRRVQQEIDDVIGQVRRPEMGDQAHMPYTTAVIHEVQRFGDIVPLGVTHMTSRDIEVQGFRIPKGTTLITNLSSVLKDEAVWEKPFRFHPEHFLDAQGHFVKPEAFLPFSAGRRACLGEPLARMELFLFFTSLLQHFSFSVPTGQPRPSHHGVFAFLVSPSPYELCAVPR

Structure (SMILES) | IC50 [nM]
CCOC(=O)CCc1ccc(OC[C@H](O)CNC(C)(C)Cc2ccc3ccccc3c2)c(C#N)c1.Cl | 3000
CC(C)(Cc1ccc2ccccc2c1)NC[C@@H](O)COc1cccc(Cl)c1C#N | 45
CC(C)(Cc1ccc2ccccc2c1)NC[C@@H](O)COc1ccccc1C#N | 100
COc1ccc(CC(C)(C)NC[C@H](O)COc2cccc3[nH]c(=O)[nH]c23)cc1 | 1260
CC(C)(Cc1ccc2ccccc2c1)NC[C@@H](O)COc1ccc(CCC(=O)O)cc1C#N | > 50000
CC(C)(Cc1ccc2ccccc2c1)NC[C@@H](O)COc1ccc(CCC(=O)O)cc1 | 52000

test system: Rattus norvegicus; experiment: Oral bioavailability in rat assessed as (R)-3-(3-cyano-4-(2-hydroxy-3-(2-methyl-1-(naphthalen-2-yl)propan-2-ylamino)propoxy)phenyl)propanoic acid levels; type: ADME, organism-based; conditions: in vivo

Structure (SMILES) | F [%]
CCOC(=O)CCc1ccc(OC[C@H](O)CNC(C)(C)Cc2ccc3ccccc3c2)c(C#N)c1.Cl | 9.5

target: T1, Extracellular calcium-sensing receptor (Homo sapiens, UniProt P41180); experiment: Displacement of [3H](2-(2-hydroxyphenyl)-6-methyl-5-(2-methylpropyl)-3-(2-phenylethyl)-4(3H)-pyrimidinone) from human calcium receptor expressed in human HEK293 4.0-7 cells by liquid scintillation counting; type: cell-based; conditions: not given
T1 sequence (P41180 whole entry): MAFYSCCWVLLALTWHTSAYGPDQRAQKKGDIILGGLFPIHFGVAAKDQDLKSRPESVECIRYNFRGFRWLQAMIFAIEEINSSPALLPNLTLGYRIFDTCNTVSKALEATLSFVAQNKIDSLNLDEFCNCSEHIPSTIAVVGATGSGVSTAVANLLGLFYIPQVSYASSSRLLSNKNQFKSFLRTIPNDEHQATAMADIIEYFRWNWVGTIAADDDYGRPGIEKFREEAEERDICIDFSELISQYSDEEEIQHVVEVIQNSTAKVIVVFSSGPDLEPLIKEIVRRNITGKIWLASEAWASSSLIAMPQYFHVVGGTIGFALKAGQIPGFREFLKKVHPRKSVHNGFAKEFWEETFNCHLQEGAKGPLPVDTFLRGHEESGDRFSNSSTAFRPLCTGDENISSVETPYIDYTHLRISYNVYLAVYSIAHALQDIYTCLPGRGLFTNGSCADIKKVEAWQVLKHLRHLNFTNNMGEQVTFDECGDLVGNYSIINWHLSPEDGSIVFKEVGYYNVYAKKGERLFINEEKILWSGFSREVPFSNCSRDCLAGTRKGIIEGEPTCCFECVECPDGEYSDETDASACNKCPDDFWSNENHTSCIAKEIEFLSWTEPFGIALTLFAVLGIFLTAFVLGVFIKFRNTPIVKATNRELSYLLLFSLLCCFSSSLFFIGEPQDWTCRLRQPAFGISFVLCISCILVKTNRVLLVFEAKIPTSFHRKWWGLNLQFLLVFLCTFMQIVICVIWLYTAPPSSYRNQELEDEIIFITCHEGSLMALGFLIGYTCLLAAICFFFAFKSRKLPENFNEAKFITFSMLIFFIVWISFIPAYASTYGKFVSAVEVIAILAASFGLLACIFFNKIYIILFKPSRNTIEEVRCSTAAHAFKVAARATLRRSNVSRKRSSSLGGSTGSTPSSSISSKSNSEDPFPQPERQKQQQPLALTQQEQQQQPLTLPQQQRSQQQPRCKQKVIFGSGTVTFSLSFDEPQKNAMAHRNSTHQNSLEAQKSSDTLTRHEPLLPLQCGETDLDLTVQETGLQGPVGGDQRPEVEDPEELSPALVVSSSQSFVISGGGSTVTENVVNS

Structure (SMILES) | IC50 [nM]
CCOC(=O)CCc1ccc(OC[C@H](O)CNC(C)(C)Cc2ccc3ccccc3c2)c(C#N)c1.Cl | 3
CC(C)(Cc1ccc2ccccc2c1)NC[C@@H](O)COc1cccc(Cl)c1C#N | 3
CC(C)(Cc1ccc2ccccc2c1)NC[C@@H](O)COc1ccccc1C#N | 3
COc1ccc(CC(C)(C)NC[C@H](O)COc2cccc3[nH]c(=O)[nH]c23)cc1 | 31800
CC(C)(Cc1ccc2ccccc2c1)NC[C@@H](O)COc1ccc(CCC(=O)O)cc1C#N | 22
CC(C)(Cc1ccc2ccccc2c1)NC[C@@H](O)COc1ccc(CCC(=O)O)cc1 | 4800

target: Sodium-dependent serotonin transporter (Homo sapiens, UniProt P31645); experiment: Inhibition of SERT; conditions: not given
Sequence (P31645 whole entry): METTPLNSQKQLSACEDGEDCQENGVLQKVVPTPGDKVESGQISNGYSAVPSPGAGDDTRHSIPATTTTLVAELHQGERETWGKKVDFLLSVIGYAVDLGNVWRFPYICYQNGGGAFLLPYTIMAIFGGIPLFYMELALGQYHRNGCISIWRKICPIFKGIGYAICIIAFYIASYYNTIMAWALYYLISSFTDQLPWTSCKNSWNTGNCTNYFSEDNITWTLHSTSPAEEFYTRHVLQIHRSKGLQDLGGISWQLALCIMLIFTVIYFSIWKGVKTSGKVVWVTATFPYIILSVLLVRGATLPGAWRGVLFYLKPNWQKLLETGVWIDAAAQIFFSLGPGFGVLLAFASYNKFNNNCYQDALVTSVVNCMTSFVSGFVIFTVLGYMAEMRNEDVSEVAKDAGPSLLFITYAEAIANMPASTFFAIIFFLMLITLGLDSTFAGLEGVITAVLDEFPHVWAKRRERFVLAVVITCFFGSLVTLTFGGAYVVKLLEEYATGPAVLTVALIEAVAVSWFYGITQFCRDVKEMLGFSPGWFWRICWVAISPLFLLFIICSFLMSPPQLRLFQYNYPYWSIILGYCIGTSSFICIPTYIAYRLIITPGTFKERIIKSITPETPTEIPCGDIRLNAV

Structure (SMILES) | IC50 [nM]
CCOC(=O)CCc1ccc(OC[C@H](O)CNC(C)(C)Cc2ccc3ccccc3c2)c(C#N)c1.Cl | 78
CC(C)(Cc1ccc2ccccc2c1)NC[C@@H](O)COc1ccccc1C#N | 3
CC(C)(Cc1ccc2ccccc2c1)NC[C@@H](O)COc1ccc(CCC(=O)O)cc1C#N | 23
CC(C)(Cc1ccc2ccccc2c1)NC[C@@H](O)COc1ccc(CCC(=O)O)cc1 | 68

target: Sodium-dependent noradrenaline transporter (Homo sapiens, UniProt P23975); experiment: Inhibition of NET; conditions: not given
Sequence (P23975 whole entry): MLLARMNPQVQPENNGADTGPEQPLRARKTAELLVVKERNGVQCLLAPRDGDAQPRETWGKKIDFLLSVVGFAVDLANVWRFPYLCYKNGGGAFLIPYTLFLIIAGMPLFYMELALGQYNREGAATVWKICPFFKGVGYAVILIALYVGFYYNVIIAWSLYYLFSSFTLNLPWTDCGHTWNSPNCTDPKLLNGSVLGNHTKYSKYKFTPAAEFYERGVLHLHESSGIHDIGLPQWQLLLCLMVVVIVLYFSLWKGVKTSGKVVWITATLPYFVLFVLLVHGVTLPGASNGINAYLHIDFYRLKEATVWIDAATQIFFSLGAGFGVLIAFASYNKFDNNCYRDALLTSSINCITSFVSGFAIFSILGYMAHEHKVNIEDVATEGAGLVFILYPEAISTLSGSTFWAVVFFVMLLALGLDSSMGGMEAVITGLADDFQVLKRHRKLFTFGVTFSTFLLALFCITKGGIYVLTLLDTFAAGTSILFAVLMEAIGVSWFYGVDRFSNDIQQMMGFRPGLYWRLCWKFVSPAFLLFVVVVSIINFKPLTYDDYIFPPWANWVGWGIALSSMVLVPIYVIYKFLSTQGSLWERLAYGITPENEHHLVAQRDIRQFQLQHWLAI

Structure (SMILES) | IC50 [nM]
CCOC(=O)CCc1ccc(OC[C@H](O)CNC(C)(C)Cc2ccc3ccccc3c2)c(C#N)c1.Cl | 37
CC(C)(Cc1ccc2ccccc2c1)NC[C@@H](O)COc1ccccc1C#N | 3
CC(C)(Cc1ccc2ccccc2c1)NC[C@@H](O)COc1ccc(CCC(=O)O)cc1C#N | 5400
CC(C)(Cc1ccc2ccccc2c1)NC[C@@H](O)COc1ccc(CCC(=O)O)cc1 | 16000

target: T1, Extracellular calcium-sensing receptor; experiment: Antagonist activity at human calcium receptor expressed in HEK293 4.0-7 cells assessed as inhibition of intracellular calcium release by FLIPR assay; type: functional, cell-based; conditions: not given

Structure (SMILES) | IC50 [nM]
CCOC(=O)CCc1ccc(OC[C@H](O)CNC(C)(C)Cc2ccc3ccccc3c2)c(C#N)c1.Cl | 34
CC(C)(Cc1ccc2ccccc2c1)NC[C@@H](O)COc1cccc(Cl)c1C#N | 58
CC(C)(Cc1ccc2ccccc2c1)NC[C@@H](O)COc1ccccc1C#N | 18
COc1ccc(CC(C)(C)NC[C@H](O)COc2cccc3[nH]c(=O)[nH]c23)cc1 | 11000
CC(C)(Cc1ccc2ccccc2c1)NC[C@@H](O)COc1ccc(CCC(=O)O)cc1C#N | 200
CC(C)(Cc1ccc2ccccc2c1)NC[C@@H](O)COc1ccc(CCC(=O)O)cc1 | > 25000

test system: Rattus norvegicus; experiment: Metabolic stability in intraportal dosed rat assessed as hepatic first pass; type: ADME, organism-based; conditions: in vivo, other

Structure (SMILES) | Activity [%]
CC(C)(Cc1ccc2ccccc2c1)NC[C@@H](O)COc1ccc(CCC(=O)O)cc1C#N | 68

test system: not listed separately; experiment: Half life in iv and po dosed dog; type: ADME, organism-based, Canis lupus familiaris; conditions: in vivo

Structure (SMILES) | half-life [min]
CCOC(=O)CCc1ccc(OC[C@H](O)CNC(C)(C)Cc2ccc3ccccc3c2)c(C#N)c1.Cl | 73.8
CC(C)(Cc1ccc2ccccc2c1)NC[C@@H](O)COc1ccc(CCC(=O)O)cc1C#N | 73.8

test system: not listed separately; experiment: Clearance in iv and po dosed rat; type: ADME, organism-based; conditions: in vivo

Structure (SMILES) | clearance [mL/min/kg]
CC(C)(Cc1ccc2ccccc2c1)NC[C@@H](O)COc1cccc(Cl)c1C#N | 73.8
CC(C)(Cc1ccc2ccccc2c1)NC[C@@H](O)COc1ccc(CCC(=O)O)cc1C#N | 63.6
CC(C)(Cc1ccc2ccccc2c1)NC[C@@H](O)COc1ccc(CCC(=O)O)cc1 | 118

target: Voltage-gated inwardly rectifying potassium channel KCNH2 (Homo sapiens, UniProt Q12809); conditions: not given
Sequence (Q12809 whole entry): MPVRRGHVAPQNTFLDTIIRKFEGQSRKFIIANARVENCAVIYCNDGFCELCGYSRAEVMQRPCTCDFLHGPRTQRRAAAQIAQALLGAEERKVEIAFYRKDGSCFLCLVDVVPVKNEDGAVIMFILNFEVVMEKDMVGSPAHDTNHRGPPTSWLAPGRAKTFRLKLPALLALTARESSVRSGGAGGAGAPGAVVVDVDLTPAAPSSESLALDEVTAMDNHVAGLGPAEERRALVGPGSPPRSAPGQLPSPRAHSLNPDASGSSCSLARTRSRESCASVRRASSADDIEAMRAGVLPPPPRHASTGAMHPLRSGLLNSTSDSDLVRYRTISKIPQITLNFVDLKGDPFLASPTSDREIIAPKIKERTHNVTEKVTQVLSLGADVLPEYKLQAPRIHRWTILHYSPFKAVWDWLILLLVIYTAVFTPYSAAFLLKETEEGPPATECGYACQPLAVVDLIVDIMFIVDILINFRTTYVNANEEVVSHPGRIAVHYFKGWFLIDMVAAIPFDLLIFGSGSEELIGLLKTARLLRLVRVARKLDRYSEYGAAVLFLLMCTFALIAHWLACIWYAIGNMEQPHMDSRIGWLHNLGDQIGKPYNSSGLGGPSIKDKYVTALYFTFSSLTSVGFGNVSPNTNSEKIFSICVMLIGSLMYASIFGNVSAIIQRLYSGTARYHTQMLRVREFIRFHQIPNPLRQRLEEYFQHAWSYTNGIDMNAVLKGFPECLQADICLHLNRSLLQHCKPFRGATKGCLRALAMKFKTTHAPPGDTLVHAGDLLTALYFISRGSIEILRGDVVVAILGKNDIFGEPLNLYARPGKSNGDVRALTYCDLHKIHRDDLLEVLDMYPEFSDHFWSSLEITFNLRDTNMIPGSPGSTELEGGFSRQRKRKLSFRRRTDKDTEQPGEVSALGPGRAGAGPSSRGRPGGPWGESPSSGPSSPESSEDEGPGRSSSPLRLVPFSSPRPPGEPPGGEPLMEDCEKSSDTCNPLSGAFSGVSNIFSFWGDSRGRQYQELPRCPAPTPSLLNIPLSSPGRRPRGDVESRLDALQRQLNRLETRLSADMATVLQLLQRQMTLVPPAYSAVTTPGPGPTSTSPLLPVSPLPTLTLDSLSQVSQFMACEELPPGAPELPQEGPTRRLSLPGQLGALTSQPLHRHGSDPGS

Structure (SMILES) | IC50 [nM]
CC(C)(Cc1ccc2ccccc2c1)NC[C@@H](O)COc1cccc(Cl)c1C#N | 3
CC(C)(Cc1ccc2ccccc2c1)NC[C@@H](O)COc1ccccc1C#N | 3.2
COc1ccc(CC(C)(C)NC[C@H](O)COc2cccc3[nH]c(=O)[nH]c23)cc1 | 11.8
CC(C)(Cc1ccc2ccccc2c1)NC[C@@H](O)COc1ccc(CCC(=O)O)cc1C#N | 32.7
CC(C)(Cc1ccc2ccccc2c1)NC[C@@H](O)COc1ccc(CCC(=O)O)cc1 | 38.5

test system: not listed separately; experiment: Half life in iv and po dosed rat; type: ADME, organism-based; conditions: in vivo

Structure (SMILES) | half-life [min]
CCOC(=O)CCc1ccc(OC[C@H](O)CNC(C)(C)Cc2ccc3ccccc3c2)c(C#N)c1.Cl | 52.8
CC(C)(Cc1ccc2ccccc2c1)NC[C@@H](O)COc1cccc(Cl)c1C#N | 126
CC(C)(Cc1ccc2ccccc2c1)NC[C@@H](O)COc1ccc(CCC(=O)O)cc1C#N | 33.6
CC(C)(Cc1ccc2ccccc2c1)NC[C@@H](O)COc1ccc(CCC(=O)O)cc1 | 24

test system: not listed separately; experiment: Clearance in iv and po dosed dog; type: ADME, organism-based, Canis lupus familiaris; conditions: in vivo

Structure (SMILES) | clearance [mL/min/kg]
CC(C)(Cc1ccc2ccccc2c1)NC[C@@H](O)COc1ccc(CCC(=O)O)cc1C#N | 15.4

test system: not listed separately; experiment: Volume of distribution at steady state in iv and po dosed rat; type: ADME, organism-based; conditions: in vivo, read-out: Vdss

Structure (SMILES) | Vd [L/kg]
CC(C)(Cc1ccc2ccccc2c1)NC[C@@H](O)COc1cccc(Cl)c1C#N | 11
CC(C)(Cc1ccc2ccccc2c1)NC[C@@H](O)COc1ccc(CCC(=O)O)cc1C#N | 1.18
CC(C)(Cc1ccc2ccccc2c1)NC[C@@H](O)COc1ccc(CCC(=O)O)cc1 | 2.1

test system: not listed separately; experiment: Mean residence time in iv and po dosed dog; type: ADME, organism-based, Canis lupus familiaris; conditions: in vivo

Structure (SMILES) | MRT [h]
CCOC(=O)CCc1ccc(OC[C@H](O)CNC(C)(C)Cc2ccc3ccccc3c2)c(C#N)c1.Cl | 1.37
CC(C)(Cc1ccc2ccccc2c1)NC[C@@H](O)COc1ccc(CCC(=O)O)cc1C#N | 0.85

test system: Canis familiaris; experiment: Metabolic stability in intraportal dosed dog assessed as hepatic first pass; type: ADME, organism-based, Canis lupus familiaris; conditions: in vivo, other

Structure (SMILES) | Activity [%]
CC(C)(Cc1ccc2ccccc2c1)NC[C@@H](O)COc1ccc(CCC(=O)O)cc1C#N | 90

test system: not listed separately; experiment: Mean residence time in iv and po dosed rat; type: ADME, organism-based; conditions: in vivo

Structure (SMILES) | MRT [min]
CCOC(=O)CCc1ccc(OC[C@H](O)CNC(C)(C)Cc2ccc3ccccc3c2)c(C#N)c1.Cl | 42
CC(C)(Cc1ccc2ccccc2c1)NC[C@@H](O)COc1cccc(Cl)c1C#N | 150
CC(C)(Cc1ccc2ccccc2c1)NC[C@@H](O)COc1ccc(CCC(=O)O)cc1C#N | 19.2
CC(C)(Cc1ccc2ccccc2c1)NC[C@@H](O)COc1ccc(CCC(=O)O)cc1 | 18
